The source of these data is patent publication US20100003311A1, “Antimicrobial Composition” (priority 2006, published 2010).

One assay relates to human keratinocytes. Briefly: β-defensin production in culture medium containing human keratinocytes contacted with the compositions (FIG. 1). In kind it is cell-based. Particulars: compared with lipopolysaccharide. An excerpt:
The data was obtained by measuring β-defensin production in culture medium containing human keratinocytes when contacted with the various compositions.

In assay [1] the test system is epithelial surfaces (both mucosa and skin). Briefly: release of β-defensin 2 by epithelial surfaces. From the text: The stimulation of β-defensin 2 by hyaluronic acid has been observed by the patent inventor. […] The application of hyaluronic acid to the skin is thought to increase the amount of innate immunity antibiotic peptides such as β-defensin 2 that are present and therefore provide an increased level of innate immunity. The stimulation of defensin and other innate immunity antibiotic peptide expression in sites of skin and mucosa injury may therefore facilitate tissue repair by providing innate immunity and decreasing the possible bacterial contamination and colonisation of tissues by opportunistic pathogens.

As to hyaluronic acid, in the assay with human keratinocytes, the “stimulation of β-defensin production” value was “stimulates β-defensin production by human keratinocytes significantly, and considerably more than lipopolysaccharide”. The “release of β-defensin 2” value in assay [1] is “able to determine the release of β-defensin 2 by epithelial surfaces”.
